# Target: Carbonic anhydrase 2 [F130V] (Homo sapiens, UniProt P00918, F130V)
# Assay: In vitro binding of inhibitor to hCA-II
# Settings: pH 7.4; 37 °C
# Procedure: Inhibitor binding to CA II was determined using a fluorescence competition assay. Displacement of dansylamide and binding of the inhibitor was determined by measuring and comparing the average fluorescence intensities of the treated versus control reactions. Binding constants were estimated from a Dixon plot of the data (reciprocal of the average fluorescence intensity versus inhibitor concentration)
row,Kd [nM],SMILES
1,1.6,"NS(=O)(=O)c1ccc(C(=O)NCc2cccc(F)c2F)cc1 [N-[(2,3-difluorophenyl)methyl]-4-sulfamoylbenzamide]"
2,3.9,"NS(=O)(=O)c1ccc(C(=O)NCc2c(F)cccc2F)cc1 [N-[(2,6-difluorophenyl)methyl]-4-sulfamoylbenzamide]"
3,2.3,NS(=O)(=O)c1ccc(C(=O)NCc2ccccc2F)cc1 [N-[(2-fluorophenyl)methyl]-4-sulfamoylbenzamide]
4,2,"NS(=O)(=O)c1ccc(C(=O)NCc2c(F)c(F)c(F)c(F)c2F)cc1 [N-[(2,3,4,5,6-pentafluorophenyl)methyl]-4-sulfamoylbenzamide]"

# From BindingDB's records for doi:10.1021/ja011034p (University of Pennsylvania, 2001)
